Read-outs that look alike come from different tables or passages of the source. Marks after values point to notes of the source that are not given here.
Legend:
α2A receptors = target: T1, α2A receptors (Rattus norvegicus, UniProt P22909); assay: Binding of [3H]RX821002 to α2A receptors (rat cortex membranes)
T1 construct: from tissue; host or cells: rat cortex membranes
T1 sequence (P22909 1-465): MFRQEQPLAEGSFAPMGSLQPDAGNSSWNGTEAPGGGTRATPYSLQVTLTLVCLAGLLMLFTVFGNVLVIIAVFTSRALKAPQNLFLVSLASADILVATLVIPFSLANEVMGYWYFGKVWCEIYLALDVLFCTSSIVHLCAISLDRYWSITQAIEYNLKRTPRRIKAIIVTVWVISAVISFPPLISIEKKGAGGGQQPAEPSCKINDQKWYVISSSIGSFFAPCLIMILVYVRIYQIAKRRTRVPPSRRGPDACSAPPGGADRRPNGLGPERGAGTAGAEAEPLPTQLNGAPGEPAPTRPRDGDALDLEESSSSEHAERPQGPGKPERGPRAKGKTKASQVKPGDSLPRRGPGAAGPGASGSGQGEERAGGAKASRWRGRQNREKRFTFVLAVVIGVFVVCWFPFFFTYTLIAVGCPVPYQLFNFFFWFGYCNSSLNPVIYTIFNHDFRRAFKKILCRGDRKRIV
Protocol: Membrane preparations of rat cortex as described previously in the literature were performed. The organs were homogenized in a Potter with the aid of a motor unit (Fisatom) and Teflon piston in the proportion of 20 parts of 50 mM Tris HCl (pH 7.4 at 4° C.) for one piece of material, three times for 30 seconds each time, at intervals the solution was allowed to stand on ice for 1 minute.
Then it was performed a centrifugation at 900×g for 10 minutes at 4° C. It was obtained a […] which was resuspended in solution cold 50 mM Tris-HCl (pH 7.4) and the same procedure was performed once more. The supernatant was then centrifuged at 48,000×g for 10 minutes at 4° C. yielding a pellet which was resuspended at a ratio of 20 parts of 50 mM Tris HCl (pH 7.4 at 4° C.) for one piece of material, and incubated at 37° C. for 10 minutes in order to remove the endogenous neurotransmitters. Finally, centrifugation two times more at 48,000×g was performed for 10 minutes at 4° C., and then the final pellet was resuspended in a solution of 50 mM Tris-HCl (pH 7.4).
Binding assays for the α2A receptor were performed as described previously in the literature and previously standardized in the laboratory by saturation experiments. […] Incubate for 60 minutes at 30° C., 150 membrane preparation of rat cortex contained 50 μL was suspended in 50 mM Tris-HCl into tubes containing 400 μL intermediate solution ([3H] RX821002 1.25 nM, 50 mM Tris (pH 7.4 at 37° C.) and 50 μL of different concentrations of LDT's (final concentration 10^−7-3×10^−5 M to LDT65-68) or 50 μL of 50 mM Tris-HCl pH 7.4 at 37° C. (solvent for dilution of the LDT's), to determine the total binding or 50 μL nonradioactive bitartrate adrenaline at 100 μM for determining the non-specific bounding (final volume 500 μL). Assays were performed in triplicate.
After the incubation period, the reaction was stopped by adding 4 mL ice cold solution containing 5 mM Tris (pH 7.4), followed by vacuum filtration on glass fiber filter (GMF 3, Filtrak®) previously soaked with solution 0.5% polyethylenoimine. The filters were washed three times with 4 mL of ice-cold solution containing 5 mM Tris (pH 7.4) under vacuum to remove all free radioligand. Then the filters were dried and placed in vials containing 5 ml scintillation fluid (composition: 4% PPO, 0.1% POPOP w/v in toluene). The radioactivity retained on the filters was then determined in a liquid scintillation counter (Packard Tri-Carb 1600 TR). Specific binding of [3H]RX821002 to a2A receptors was defined as the difference between total binding and non-specific binding. To these receptors were determined and IC50 and Ki parameters.

5-HT1A receptors = target: T2, 5-HT1A receptors (Homo sapiens, UniProt P08908); assay: Cell proliferation in vitro, DU-145 cells stimulated with 5-HT (MTT); assay type: cell-based; settings: for Proliferation percentage in relation to basel (100%) in the presence of LDT's, 5HT1A: 48 h; for inhibition of the effect of the 5-HT1A receptors stimulus on proliferation: LDT3 50 nM, LDT66 20 nM
T2 construct: endogenous in cells; host or cells: DU-145
T2 sequence (P08908 1-422): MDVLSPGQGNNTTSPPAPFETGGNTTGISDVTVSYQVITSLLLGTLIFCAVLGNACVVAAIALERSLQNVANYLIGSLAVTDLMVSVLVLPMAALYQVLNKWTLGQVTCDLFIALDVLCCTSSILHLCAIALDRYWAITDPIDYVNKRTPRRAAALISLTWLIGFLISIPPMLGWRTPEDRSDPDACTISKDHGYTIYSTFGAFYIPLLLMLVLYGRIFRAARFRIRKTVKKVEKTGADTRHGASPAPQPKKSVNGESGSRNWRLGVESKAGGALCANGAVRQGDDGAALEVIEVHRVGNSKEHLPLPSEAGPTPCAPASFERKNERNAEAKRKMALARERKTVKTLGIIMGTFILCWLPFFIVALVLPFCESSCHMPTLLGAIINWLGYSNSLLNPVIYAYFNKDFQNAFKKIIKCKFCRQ
Protocol: Human prostate cancer cells (DU-145) were cultured in medium (RPMI 1640) until confluence. Then the cells were dissociated, plated (5×10^3 cells/well) and maintained in medium free of fetal bovine serum for 24 hours. […] Cell proliferation was assessed by using the MTT technique (MOSMANN, T. Immunol Methods. 16; 65 (1-2):55-63, 1983).

[1] = Acute toxicity test in Swiss mice (body temperature, behaviour for 14 days); assay type: in vivo; settings: n=6; for T (° C.) Basal Measure: body temperature before treatment; for T (° C.) 30′ after LDT / T (° C.) 60′ after LDT: body temperature, 100 mg/kg ip
Protocol: Swiss mice (female, 25-30 g, 6 animals per condition) were treated with LDT via intraperitoneal with LTD's at a dose of […] and observed for 14 days in the behavioral framework according to described method (LORKE, D., Arch Toxicol, 54 (4): 275-87, 1983, modified). The temperature was measured by retal probe before and after 30 and 60 min of described treatment.

[2] = Table 6, Cheng-Prusoff, read-out: Ki
[3] = Table 12, Cheng-Prusoff, read-out: Ki
[4] = Table 12, read-out: -log IC50 (converted)
[5] = DU-145, 5-HT 1 μM + test substance 50 nM

Compound | log IC50 (M) (α2A receptors; Table 6) | Ki (α2A receptors; [2]) [µM] | Ki (α2A receptors; [3]) [µM] | IC50 (α2A receptors; [4]) [µM] | Proliferation percentage in relation to basel (100%) in the presence of LDT's, 5HT1A (5-HT1A receptors; [5]) | inhibition of the effect of the 5-HT1A receptors stimulus on proliferation (5-HT1A receptors) | T (° C.) Basal Measure [1] [°C] | T (° C.) 30′ after LDT [1] [°C] | T (° C.) 60′ after LDT [1] [°C] | IC50 (α2A receptors) [µM] | Ki (α2A receptors) [µM] | Proliferation percentage in relation to basel (100%) in the presence of LDT's, 5HT1A (5-HT1A receptors; DU-145, 5-HT 1 μM + test substance 5 nM) [%]
CCCCCCCN1CCN(c2ccccc2OC)CC1 [LDT 67] | −6.10 ± 0.06 | 0.5 | – | – | – | – | – | – | – | – | – | –
COc1cccc(CCN2CCN(c3ccccc3OC)CC2)c1 [LDT 3] | – | – | 0.93 | 1.1 | 96.9 ± 5.8^b % | inhibited the effect | 35.33 | 35.50 | 35.50 | – | – | –
COc1ccc(CCN2CCN(c3ccccc3OC)CC2)cc1OC [LDT 5] | – | – | – | – | 118.8 ± 9.9% | – | 35.00 | 35.50 | 35.17 | 0.295 | 0.24 | –
CCCCCCN1CCN(c2ccccc2OC)CC1 [LDT 66] | −5.92 ± 0.06 | 0.8 | – | – | 110.8 ± 7.7^b % | inhibited the effect | 37.00 | 37.50 | 37.33 | – | – | –
CCOc1ccccc1N1CCN(CCc2ccc3c(c2)OCO3)CC1 [LDT 8] | – | – | 0.55 | 0.603 | – | – | 35.67 | 35.67 | 35.50 | – | – | 138.4 ± 42.9
CCCCCN1CCN(c2ccccc2OC)CC1 [LDT 65] | – | – | – | – | – | – | 37.17 | 37.17 | 37.17 | 2.51 | 1.5 | –
CCCCCCCCN1CCN(c2ccccc2OC)CC1 [LDT 68] | −6.01 ± 0.03 | 0.6 | – | – | – | – | – | – | – | – | – | –
CCOc1ccccc1N1CCN(CCc2ccc(OC)c(OC)c2)CC1 [LDT 245] | – | – | – | – | – | – | – | – | – | 2 | 0.16 | –
